According to US20230000982A1, “COMPOSITION FOR PREVENTING OR TREATING CANCER, CONTAINING NOVEL TRIFLUOROMETHYL PHENYL PYRAZOLE DERIVATIVE AS ACTIVE INGREDIENT” (KOREA INSTITUTE OF RADIOLOGICAL & MEDICAL SCIENCES, priority 2019, published 2023):

What was measured:
[1] = target: T1, Trk-A kinase (Homo sapiens, UniProt P04629); assay: Western blotting of Trk-A downstream signaling (phosphorylated ERK, phosphorylated STAT3) in cancer cell lines; type: cell-based; conditions: 2.5, 5, 10, 20 μM; FIG. 7c
T1 sequence (P04629 33-796): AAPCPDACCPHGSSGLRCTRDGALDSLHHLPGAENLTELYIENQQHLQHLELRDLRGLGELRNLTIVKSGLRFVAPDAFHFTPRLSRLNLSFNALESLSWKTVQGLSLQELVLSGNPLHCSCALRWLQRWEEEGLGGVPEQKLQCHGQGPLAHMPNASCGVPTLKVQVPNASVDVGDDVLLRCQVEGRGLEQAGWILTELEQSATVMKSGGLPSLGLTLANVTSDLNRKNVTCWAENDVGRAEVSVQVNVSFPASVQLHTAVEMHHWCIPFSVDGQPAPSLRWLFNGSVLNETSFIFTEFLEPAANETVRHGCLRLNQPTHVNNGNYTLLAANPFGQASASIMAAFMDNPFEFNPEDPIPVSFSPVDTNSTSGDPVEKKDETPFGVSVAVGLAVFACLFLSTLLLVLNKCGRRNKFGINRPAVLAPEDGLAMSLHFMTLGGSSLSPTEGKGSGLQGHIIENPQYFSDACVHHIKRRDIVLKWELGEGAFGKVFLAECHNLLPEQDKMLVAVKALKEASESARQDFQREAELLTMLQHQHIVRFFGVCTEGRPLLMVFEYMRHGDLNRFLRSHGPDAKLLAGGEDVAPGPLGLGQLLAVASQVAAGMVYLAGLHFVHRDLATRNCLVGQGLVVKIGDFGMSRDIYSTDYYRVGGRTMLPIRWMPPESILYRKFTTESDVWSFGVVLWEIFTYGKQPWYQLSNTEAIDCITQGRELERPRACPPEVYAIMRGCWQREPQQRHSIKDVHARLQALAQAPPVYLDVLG
Experimental: In cancer cell lines, it was confirmed whether KRCT-1 inhibits the activity of Trk-A kinase to inhibit downstream signaling. In the case that Trk-A is activated by ligand, the MEK/ERK and STAT3 signaling pathways in the cell are activated. Using this as an indicator, changes in phosphorylated ERK and phosphorylated STAT3 were confirmed in the case that cancer cell lines were treated with KRCT-1 concentrations (2.5, 5, 10, 20 μM). For Western blotting, 20 μg of protein was isolated through SDS-PAGE electrophoresis and transferred to PVDF membrane. The following specific antibodies were used: rabbit polyclonal antibody phospho-STAT3 (Tyr705) (ab76315; Abcam, UK), mouse monoclonal antibodies phospho-ERK (Thr202/Tyr204) (sc-514302; Santa Cruz Biotechnology), ERK (sc-7383; Santa Cruz Biotechnology), and STAT3 (sc8019; Santa Cruz Biotechnology) were used. The remaining conditions of Western blotting were performed in the same manner as in the above Example.

[2] = tested on: breast cancer cell lines BT549, T47D and MCF7; assay: Western blotting, radiation combination effect; type: cell-based, Human; conditions: 10 μM + 3 Gy radiation, 30 h
Experimental: In order to confirm the synergistic effect of radiosensitivity of cancer cell lines through treatment with KRCT-1 through Western blotting experiments, 10 μM of KRCT-1 compound was treated in breast cancer cell lines BT549, T47D and MCF7, and Biobeam GM8000 (Gamma-Gamma-Service Medical GmbH, Leipzig, Germany) was used to culture for 30 h after treatment with 3 Gy radiation. For Western blotting, 20 μg of protein was isolated through SDS-PAGE electrophoresis and transferred to a PVDF membrane. The following specific antibodies were used: rabbit polyclonal antibody phospho-Chk2 (Thr68) (#2661; Cell Signaling Technology, MA); rabbit monoclonal antibody chk2 (#6334S) were used. The remaining conditions of Western blotting were performed in the same manner as in the above Example. […] Through the above results, it was confirmed that apoptosis of cancer cells appeared effectively.

[3] = tested on: BT549; assay: Annexin V/PI staining FACS apoptosis analysis, BT549; type: cell-based, Human; conditions: BT549, 20 μM, 48 h
Experimental: (§1) After Annexin V/PI staining, FACS analysis was performed to confirm the cancer cell killing effect. Cancer cell lines MCF7 and BT549 were treated for 48 h in the presence and absence of 20 μM of KRCT-1, and analysis of Annexin V binding was performed using the Annexin V-FITC apoptosis Detection Kit (BD Biosciences, San Jose, Calif., USA) according to the manufacturer's recommended protocol. Briefly, after collecting all cells, including the cell medium, the cells were centrifuged at 1500 rpm for 5 minutes, washed with 1×PBS, resuspended at 1×10^6 cell concentration, and then 100 μl of the cell suspension was added in a 5 ml tube, and 5 μl of Annexin V-FITC and 5 μl of PI were added thereto and cultured in the dark for 15 minutes at RT. 400 μl of 1× binding buffer was added to each tube and samples were analyzed by flow cytometry. As a result, it was confirmed that MCF7 induced about 40%, BT549 induced about 23% cell death.

[4] = tested on: BT549 cell line; assay: Immunodeficient mouse tumor model (xenograft) transplanted with BT549; type: in vivo; conditions: 30 mg/kg intraperitoneally twice a week
Experimental: By subcutaneously implanting a cancer cell line into an immunodeficient mouse tumor model, it was attempted to verify whether the anticancer effect of the compound actually occurs at the in vivo level. After the tumor was formed by implanting the BT549 cell line subcutaneously in the thigh of an immunodeficient mouse, in the case that the size of the tumor reached 50˜100 mm ˜3˜, the compound was intraperitoneally injected at 30 mg/kg twice a week. The tumor volume and the mouse weight were measured 3 times a week for the control group and the KRCT-1 treatment group, respectively. […] Western blotting was performed on the isolated mouse tumor for the tumor growth antigen Ki-67, which is shown B in FIG. 4b.

[5] = tested on: Breast cancer cell lines BT549, T47D, and MCF7; assay: Western blotting of survivin and apoptosis markers; type: cell-based, Human; conditions: 0, 2.5, 5, 10, and 20 μM, 24 h
Experimental: Apoptosis by KRCT-1 was confirmed through Western blotting. After separation of 20 μg of protein by SDS-PAGE electrophoresis and transferred to PVDF membrane, the following specific antibodies were used: rabbit polyclonal antibodies cleaved PARP (Asp214) (#9541) and phospho-Chk2 (Thr68) (#2661; Cell Signaling Technology, MA); rabbit monoclonal antibodies caspase3 (#9664), chk2 (#6334S), survivin (#2808S); mouse monoclonal antibody caspase 9 (551246; BD Pharmingen, Calif., USA). In addition, mouse monoclonal antibody (3-actin (C4; Santa Cruz Biotechnology, Calif., USA) was used as a loading control, washed with 1×PBS/0.1% Tween 20, and HRP-binding secondary antibody and improved chemiluminescence detection system was used to detect the binding protein, and an image of the band was obtained using the Amersham Imager 600 system (GE Healthcare Life Science), which is shown in FIG. 5b.
Breast cancer cell lines BT549, T47D, and MCF7 were treated with 0, 2.5, 5, 10, and 20 μM of KRCT-1 in a dose-dependent manner for 24 h each, and the expression level of survivin essential for the survival of cancer cells and the expression levels of an apoptosis markers, clv-PARP, caspase 9 and caspase 3 were checked. According to the concentration of the treated KRCT-1, the expression levels of survivin and pro-caspase 9 in cancer cells were decreased, and it was confirmed that the truncated PARP and caspase3 increased during apoptosis. Through the above results, it was confirmed that apoptosis was activated due to KRCT-1.

[6] = tested on: breast cancer cell lines BT549, MCF7, T47D and MDA MB231; assay: Colonogenic (colony formation) assay; type: cell-based, Human; conditions: 10 μM, cultured for 14 days; various breast cancer cell lines
Experimental: (§2) Human-derived tumor cell lines and breast cancer cell lines MCF7 and T47D, BT549, MDA-MB231, and MDA-MB453 was cultured in a DMEM medium (Corning, N.Y., USA), containing 10% fetal bovine serum (FBS; HyClone, South Logan, Utah) and 1% penicillin/streptomycin at 37° C. and 5% CO2 conditions.
Colonogenic analysis was performed to determine whether the selected KRCT-1 could efficiently kill cancer cells. First, cells of various breast cancer cell lines BT549, MCF7, T47D and MDA MB231 (500-1000 cells) were cultured in a 60 mm culture plate, and 24 hours later, 10 μM of the compound was treated, respectively, and cultured for 14 days.

[7] = tested on: Breast cancer cells MCF7; assay: Tumorsphere forming assay; type: cell-based, Human; conditions: cultured for 14 days; various breast cancer cell lines
Experimental: as §2
In order to determine whether the selected KRCT-1 can effectively reduce the tumorsphere formation in cancer cells, tumorsphere forming assay was performed. Breast cancer cells MCF7 (2500-10000 cells) were suspended in serum-free DMEM/F12 (welGENE), containing 1% penicillin, B-27 (1:50; invitrogen), 20 ng/mL epidermal growth factor (R&D Systems) and 20 ng/mL fibroblasts growth factors (R&D Systems) on low adhesion plates and cultured. After 24 hours had elapsed, the cells were treated with the compound and cultured for 14 days, and then the diameter of the tumorspheres was measured and quantified, which is shown in FIG. 3D.

[8] = tested on: breast cancer cell lines BT549, T47D and MCF7; assay: Clonogenic assay, combination of KRCT-1 and radiation; type: cell-based, Human; conditions: 2.5 μM KRCT-1 + 2.5 Gy radiation; compared to DMSO group
Experimental: A clonogenic assay was performed to confirm the effect of the combination of KRCT-1 and radiation. To perform clonogenic assay, breast cancer cell lines BT549, T47D and MCF7 were treated with 2.5 μM of KRCT-1 compound, and 2.5 Gy radiation was used using Biobeam GM8000 (Gamma-Gamma-Service Medical GmbH, Leipzig, Germany). The experimental technique for the remaining colony formation was performed in the same manner as in the above Example, and was shown in FIG. 6a. In the group treated with KRCT-1, the radiation treatment effect of the two cancer cell lines was significant compared to the group treated with DMSO, confirming that the number of cancer cell colonies decreased.

[9] = tested on: MCF7 cells; assay: γ-H2AX foci experiment (DNA damage) with radiation; type: cell-based, Human; conditions: 20 μM for 24 h + 2 Gy radiation, fixed at 1 h; compared to each control group
Experimental: To determine how KRCT-1 affects DNA damage induced by radiation, a γ-H2AX foci experiment was performed. In the case that single-stranded or double-stranded DNA is cleaved by various DNA damaging agents including radiation, γ-H2AX phosphorylation occurs and nuclear foci are generated in the cell nucleus. Using this as an index, the effect of the combination according to DNA damage was evaluated. After culturing 2.5×10^4 MCF7 cells in a 24-well plate for 48 h, KRCT-1 20 μM was treated for 24 h, and the cells were fixed at 1 h after irradiation with 2 Gy of radiation. Then, after washing with phosphate buffered saline for permeation, 4% paraformaldehyde and 0.2% Triton-X were added and reacted for 10 min each. After 1 h pretreatment with 5% fetal bovine serum, 1:100 dilution of γ-H2AX (05-656; EMD Millipore Corp., MA, USA) antibody to phosphorylated H2AX for was treated for 16 h, and it was washed 3 times with 0.1% TritonX-100/phosphate buffered saline solution (Tritonx-100/PBS). Alexa488-conjugated secondary antibody (AP132JA4, Invitrogen) was reacted for 2 h at room temperature and labeled, and phosphorylated γ-H2AX foci were photographed and analyzed with IN Cell Analyzer 6000 (GE Healthcare Life Science). […] Taken together, in cancer cells, it was confirmed that KRCT-1 is a material that can be effectively used as a radiosensitizer.

[10] = tested on: MCF7; assay: Annexin V/PI staining FACS apoptosis analysis, MCF7; type: cell-based, Human; conditions: MCF7, 20 μM, 48 h
Experimental: as §1

[11] = target: T1, Trk-A kinase; assay: In vitro kinase assay of Trk-A; type: biochemical; design: purchased Eurofins Pharma Discovery Services (commissioned via Goma Biotech); conditions: serially diluted 3-fold from 100 μM; FIG. 7b
Experimental: To measure the selective reactivity of KRCT-1 to a specific kinase, in vitro kinase assay profiling was commissioned to Goma Biotech (Seoul, Korea), and the enzyme reaction experiment was performed at Eurofins Pharma Discovery Services (Scotland, UK). For kinase profiling, 104 kinase series and 10 μM KRCT-1 were used in the reaction as a broad oncology panel. To obtain the IC50 kinase assay of Trk-A, KRCT-1 serially diluted 3-fold from 100 μM was used.

SMILES: CN(C)S(=O)(=O)Nc1cccc(-c2cnn(-c3ccc(C(F)(F)F)cc3)c2)c1 [KRCT-1, N,N-dimethyl-N′-(3-(1-(4-(trifluoromethyl)phenyl)-1H-pyrazol-4-yl)phenyl)azanesulfonamide]
- downstream signaling of Trk-A kinase in cancer cells [1]: inhibited
- expression level of phosphorylated Chk2 after radiation treatment [2]: increased
- expression level of survivin after radiation treatment [2]: decreased
- cell death (Annexin V/PI FACS) [3]: about 23%
- expression of Ki-67 in isolated mouse tumor (Western blotting) [4]: significantly reduced
- tumor volume and size ([4]; 4 weeks after transplantation, vs control group): smaller tumor volume and size than the control group
- body weight of immunodeficient mice ([4]; weight measured 3 times a week): not significantly changed
- truncated PARP [5]: increased
- truncated caspase3 [5]: increased
- expression level of pro-caspase 9 ([5]; according to concentration): decreased
- expression level of survivin ([5]; according to concentration): decreased
- number and size of cell colonies [6]: significantly reduced
- diameter of cancer cell tumorspheres [7]: significantly reduced
- number of cancer cell colonies after radiation [8]: decreased
- DNA damage (phosphorylated γ-H2AX foci) [9]: DNA damage occurred in relatively many cancer cells
- cell death (Annexin V/PI FACS) [10]: about 40%
- in vitro Trk-A kinase activity [11]: inhibition
